Reference: patent US10966951B2, “Compositions and methods for lowering triglycerides in a subject having reduced kidney function” (Amarin Pharmaceuticals Ireland Limited, priority 2017, dated 2021)

Key:
Assay type in all cases: in vivo, human
[1] = Essential fatty acid parameters in plasma, 6-week AAMI study (Example 2)
Protocol: A single-center, 6-week, double-blind, randomized, parallel-group, placebo-controlled, dose-ranging pilot study was performed to evaluate the efficacy, tolerability, and safety of >96% E-EPA in subjects with subjective and objective memory impairment according to generally accepted criteria for Age-Associated Memory Impairment (“AAMI”). The primary objective of the study was to determine the effect of >96% E-EPA 1 g, 2 g, and 4 g daily, compared to placebo, on cognitive performance in subjects with AAMI.
Ninety-four subjects were randomized into one of six groups: 1 g E-EPA daily (n=23), 2 g E-EPA daily (n=24), 4 g E-EPA daily (n=24), 1 g placebo daily (n=7), 2 g placebo daily (n=8), and 4 g placebo daily (n=8). E-EPA was provided as 500 mg soft gel capsules containing >96% E-EPA and 0.2% dl-α-tocopherol as an antioxidant. Placebo capsules contained 467 mg of liquid paraffin and 0.2% dl-α-tocopherol. Ninety-one subjects completed the study. Two subjects in the 2 g E-EPA group and one subject in the 2 g placebo group discontinued the study.
Blood samples (10 mL) were collected at Visit 1 (screening) and at Visits 4, 5, and 6. Analysis was performed by MSR Lipid Analysis, Scottish Crop Research Institute, Dundee, UK. The screening sample acted as baseline for the EFA measurements. Lipid was extracted from plasma, serum, and RBC suspensions and converted into fatty acid methyl esters which were analyzed by gas chromatography to give fatty acid profiles as micrograms fatty acid per gram of sample ([…]) and normalized area percent.
RBC and plasma EFA data were collected at baseline, Day 14, 28, and 42 and summarized by visit for each treatment group. Change from baseline and percent change from baseline were also summarized. ANCOVA comparison of E-EPA dose groups and E-EPA versus placebo was performed.

[2] = system: patients with chronic kidney disease (eGFR<60 mL/min/1.73 m^2); test: Post-hoc ANCHOR analysis, chronic kidney disease: lipid, lipoprotein, oxidation and inflammation parameters (Example 7); conditions: CKD
Protocol: (§1) CVD-related (e.g., atherogenic) parameters were analyzed in a post-hoc study of 55 patients from the multi-center, placebo-controlled, randomized double-blind, 12-week study described in Example 1. These 55 patients have chronic kidney disease (e.g., eGFR<60 mL/min/1.73 m^2 for ≥3 months). There was no lower limit of eGFR specified.
(§2) 19 patients were randomized to E-EPA and 36 patients were randomized to placebo. One patient in each group discontinued and was excluded from efficacy analyses (but not safety analyses). EPA levels in plasma and RBC were measured in 23 of the 55 patients. These measurements were taken on 7 of the patients randomized to E-EPA and on 16 of the patients that were randomized to the placebo.
The primary objective of this post-hoc study, which is based on an intention to treat, was to determine if and how 4 g daily of >96% E-EPA affects patients with stage 3 chronic kidney disease (e.g., eGFR<60 mL/min/1.73 m^2 for ≥3 months). The secondary objective was to determine if and how 4 g daily of >96% E-EPA, compared to a placebo, affected CVD-related parameters in patients with a high risk of CVD and fasting TG levels ≥[…] and <500 mg/dL, despite LDL-C goal on statin therapy. These CVD-parameters include lipid levels, lipoprotein levels, and inflammatory markers, such as TC, LDL-C, HDL-C, vLDL-C, vLDL-TG, RLP-C, non-HDL-C, Apo B, Apo C-III, Lp-PLA, hsCRP, and ox-LDL, and in plasma and RBC EPA concentration. CVD-parameters were analyzed for median difference in percent change from baseline to week 12 in subjects receiving 4 g/day of E-EPA and those receiving the placebo.
(§3) The median difference in percent change from baseline between 4 g/day of E-EPA and placebo for the primary efficacy variable and additional assessments were estimated using the Hodges-Lehmann method (P values from the Wilcoxon rank-sum test for treatment comparisons). Using the Hodges-Lehmann method, departures from normal distribution were observed; for normally distributed parameters, an analysis of covariance model was used with least squares (LS) means and standard errors (SE). Missing values were imputed using the last-observation-carried-forward method. For all post hoc analyses, the alpha for statistical significance was 0.05.

[3] = system: patients with chronic kidney disease (eGFR<60 mL/min/1.73 m^2); test: Renal parameters and safety in ANCHOR patients with CKD (Example 7)
Protocol: as §1, §2, §3

Q: Which results are given for CC/C=C\C/C=C\C/C=C\C/C=C\C/C=C\CCCC(=O)OCC [E-EPA, ethyl eicosapentaenoate]?
A: EPA, DPAn-3, and EPA/AA ratio values from baseline to Day 42 ([1]; plasma and RBC, 1, 2, and 4 g treatment groups): increased substantially; AA Mean change from Baseline, Mean (SD) ([1]; plasma, 1 g daily, Day 14): −9.7 (22.20) μg/g; DHA Mean change from Baseline, Mean (SD) ([1]; plasma, 1 g daily, Day 14): −6.4 (13.30) μg/g; EPA/AA Mean change from Baseline, Mean (SD) ([1]; plasma, 1 g daily, Day 14): 0.3 (0.4); DHA Mean change from Baseline, Mean (SD) ([1]; plasma, 1 g daily, Day 28): −6.6 (15.53) μg/g; EPA/AA Mean change from Baseline, Mean (SD) ([1]; plasma, 1 g daily, Day 28): 0.3 (0.20); AA Mean change from Baseline, Mean (SD) ([1]; plasma, 1 g daily, Day 42): −8.7 (31.35) μg/g; DGLA Mean change from Baseline, Mean (SD) ([1]; plasma, 1 g daily, Day 42): −9.4 (9.41) μg/g; DHA Mean change from Baseline, Mean (SD) ([1]; plasma, 1 g daily, Day 42): −5.4 (18.17) μg/g; EPA/AA Mean change from Baseline, Mean (SD) ([1]; plasma, 1 g daily, Day 42): 0.3 (0.24); EPA/AA Baseline Mean (SD) ([1]; plasma, 1 g daily): 0.2 (0.14); AA LS Mean, 1 g versus 4 g ([1]; plasma, 1 g versus 4 g): 4.2 µg/g; DGLA LS Mean, 1 g versus 4 g ([1]; plasma, 1 g versus 4 g): 3.7 µg/g; DHA LS Mean, 1 g versus 4 g ([1]; plasma, 1 g versus 4 g): -0.8 µg/g; EPA/AA LS Mean, 1 g versus 4 g ([1]; plasma, 1 g versus 4 g): −0.66; DHA Mean change from Baseline, Mean (SD) ([1]; plasma, 2 g daily, Day 14): −5.4 (14.29) μg/g; EPA/AA Mean change from Baseline, Mean (SD) ([1]; plasma, 2 g daily, Day 14): 0.6 (0.23); DHA Mean change from Baseline, Mean (SD) ([1]; plasma, 2 g daily, Day 28): −8.1 (15.82) μg/g; EPA/AA Mean change from Baseline, Mean (SD) ([1]; plasma, 2 g daily, Day 28): 0.8 (0.35); DHA Mean change from Baseline, Mean (SD) ([1]; plasma, 2 g daily, Day 42): −6.0 (16.69) μg/g; EPA/AA Mean change from Baseline, Mean (SD) ([1]; plasma, 2 g daily, Day 42): 0.7 (0.29); EPA/AA Baseline Mean (SD) ([1]; plasma, 2 g daily): 0.2 (0.12); DGLA LS Mean, 2 g versus 4 g ([1]; plasma, 2 g versus 4 g): 2.5 µg/g; DHA LS Mean, 2 g versus 4 g ([1]; plasma, 2 g versus 4 g): 1.5 µg/g; EPA/AA LS Mean, 2 g versus 4 g ([1]; plasma, 2 g versus 4 g): −0.41; EPA/AA Mean change from Baseline, Mean (SD) ([1]; plasma, 4 g daily, Day 14): 1.1 (0.28); EPA/AA Mean change from Baseline, Mean (SD) ([1]; plasma, 4 g daily, Day 28): 1.3 (0.42); EPA/AA Mean change from Baseline, Mean (SD) ([1]; plasma, 4 g daily, Day 42): 1.3 (0.45); EPA/AA Baseline Mean (SD) ([1]; plasma, 4 g daily): 0.2 (0.07); VLDL-C Median Difference in % Change From Baseline vs Placebo ([2]; 4 g/day vs placebo, week 12): −26.7%; hsCRP Median Difference in % Change From Baseline vs Placebo ([2]; 4 g/day vs placebo, week 12, listed as Icosapent Ethyl): −25.0%; Apo B Baseline ([2]; 4 g/day, baseline): 87.0 mg/dL; HDL-C Baseline ([2]; 4 g/day, baseline): 35.0 mg/dL; LDL-C Baseline ([2]; 4 g/day, baseline): 76.0 mg/dL; VLDL-C Baseline ([2]; 4 g/day, baseline): 42.0 mg/dL; hsCRP Baseline ([2]; 4 g/day, baseline): 1.9 mg/L; RLP-C Baseline ([2]; 4 g/day, baseline, n = 9): 17.0 mg/dL; Apo B Change From Baseline, % ([2]; 4 g/day, week 12): −7.2%; Apo B End of Treatment ([2]; 4 g/day, week 12): 83.0 mg/dL; Apo C-III Change From Baseline, % ([2]; 4 g/day, week 12): −7.3%; HDL-C Change From Baseline, % ([2]; 4 g/day, week 12): 0.9%; LDL-C Change From Baseline, % ([2]; 4 g/day, week 12): −6.5%; Lp-PLA2 End of Treatment ([2]; 4 g/day, week 12): 150.0 ng/mL; Non-HDL-C Change From Baseline, % ([2]; 4 g/day, week 12): −6.4%; Ox-LDL Change From Baseline, % ([2]; 4 g/day, week 12): −9.5%; RLP-C End of Treatment ([2]; 4 g/day, week 12): 10.0 mg/dL; TC Change From Baseline, % ([2]; 4 g/day, week 12): −8.1%; hsCRP Change From Baseline, % ([2]; 4 g/day, week 12): −16.9%; hsCRP End of Treatment ([2]; 4 g/day, week 12): 2.1 mg/L; nausea, nasopharyngitis, and arthralgia ([3]; 4 g/day): not reported by any patients; eGFR median difference in change from baseline compared with placebo ([3]; 4 g/day vs placebo, P=0.1983): −7.8%; serum creatinine median difference in change from baseline compared with placebo ([3]; 4 g/day vs placebo, P=0.1983): 6.5%; BUN median difference in change from baseline compared with placebo ([3]; 4 g/day vs placebo, P=0.5291): 5.5%; BUN median difference in change from baseline compared with placebo ([3]; 4 g/day vs placebo, P=0.5471): 1.0 mg/dL; patients reporting diarrhea ([3]; 4 g/day, 2 patients): 10.5%; patients reporting TEAE ([3]; 4 g/day, 11 of 19 patients): 57.9%; serum albumin change from baseline ([3]; 4 g/day, 12-week study): no significant median changes from baseline; BUN, median (IQR), baseline ([3]; 4 g/day, baseline): 24.5 (12.0) mg/dL; eGFR, median (IQR), baseline ([3]; 4 g/day, baseline): 55.0 (13.8) mL/min/1.73 m^2; serum creatinine, median (IQR), baseline ([3]; 4 g/day, baseline): 1.2 (0.3) mg/dL; changes in serum creatinine, blood urea nitrogen (BUN), or eGFR from baseline to week 12 ([3]; 4 g/day, compared to placebo control): did not produce significant changes; BUN, median (IQR), week 12 ([3]; 4 g/day, week 12): 22.5 (11.0) mg/dL; eGFR, median (IQR), week 12 ([3]; 4 g/day, week 12): 56.0 (12.9) mL/min/1.73 m^2; serum creatinine, median (IQR), week 12 ([3]; 4 g/day, week 12): 1.2 (0.4) mg/dL
